Experimental data: paper PMC8550792, “Evolution of kinase polypharmacology across HSP90 drug discovery” (Cell Chemical Biology, 2021)

Tests used:
Test in all cases: biochemical
Format in all cases: biochemical
382 unique human kinases [1] = target: T1, 382 unique human kinases (Homo sapiens, UniProt O14733); conditions: kinase MKK7, compound 10 uM; for remaining activity at 10 µM: read-out: % Enzyme Activity (relative to DMSO controls)
T1 construct: purchased Reaction Biology (HotSpot contract assay)
T1 sequence (O14733 1-419): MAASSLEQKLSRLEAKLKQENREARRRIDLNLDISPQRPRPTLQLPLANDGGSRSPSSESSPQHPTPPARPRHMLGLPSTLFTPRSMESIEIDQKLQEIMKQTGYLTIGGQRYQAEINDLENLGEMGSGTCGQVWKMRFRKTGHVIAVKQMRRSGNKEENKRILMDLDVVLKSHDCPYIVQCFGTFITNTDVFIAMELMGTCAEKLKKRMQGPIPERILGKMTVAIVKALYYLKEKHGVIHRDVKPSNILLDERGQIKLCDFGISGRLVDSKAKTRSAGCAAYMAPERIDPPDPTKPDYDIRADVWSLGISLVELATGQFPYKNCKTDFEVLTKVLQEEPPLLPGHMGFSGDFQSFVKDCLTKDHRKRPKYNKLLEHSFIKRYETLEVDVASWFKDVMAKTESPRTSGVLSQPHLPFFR

382 unique human kinases [2] = target: T2, 382 unique human kinases (Homo sapiens, UniProt P21802, K641R); conditions: FGFR2 (K641R), 10 uM; for remaining activity at 10 µM: read-out: % Enzyme Activity (relative to DMSO controls)
T2 construct: purchased Reaction Biology (HotSpot contract assay)
T2 sequence (P21802 22-821 K641R): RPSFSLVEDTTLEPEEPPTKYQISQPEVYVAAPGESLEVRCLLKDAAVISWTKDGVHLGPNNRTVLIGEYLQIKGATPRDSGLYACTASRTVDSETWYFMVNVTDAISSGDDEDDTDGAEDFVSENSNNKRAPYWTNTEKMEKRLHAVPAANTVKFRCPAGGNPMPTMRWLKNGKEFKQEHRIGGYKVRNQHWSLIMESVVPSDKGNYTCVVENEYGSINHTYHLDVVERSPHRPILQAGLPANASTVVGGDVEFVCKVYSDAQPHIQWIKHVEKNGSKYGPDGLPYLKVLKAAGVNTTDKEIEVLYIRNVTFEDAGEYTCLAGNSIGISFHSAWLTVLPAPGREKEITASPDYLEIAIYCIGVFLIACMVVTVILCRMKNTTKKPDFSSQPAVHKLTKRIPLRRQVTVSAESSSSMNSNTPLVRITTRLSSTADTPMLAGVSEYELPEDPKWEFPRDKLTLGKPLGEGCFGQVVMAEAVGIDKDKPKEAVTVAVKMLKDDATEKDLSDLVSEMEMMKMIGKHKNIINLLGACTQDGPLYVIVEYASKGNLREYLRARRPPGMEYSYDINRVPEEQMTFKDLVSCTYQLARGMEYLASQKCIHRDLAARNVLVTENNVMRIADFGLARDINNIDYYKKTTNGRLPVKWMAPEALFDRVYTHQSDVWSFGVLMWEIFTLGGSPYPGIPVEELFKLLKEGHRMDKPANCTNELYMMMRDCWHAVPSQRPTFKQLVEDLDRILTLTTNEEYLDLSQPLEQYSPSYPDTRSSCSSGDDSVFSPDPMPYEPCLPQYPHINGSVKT

382 unique human kinases [3] = target: T3, 382 unique human kinases (Homo sapiens, UniProt P41240); conditions: CSK, 10 uM; for remaining activity at 10 µM: read-out: % Enzyme Activity (relative to DMSO controls)
T3 construct: purchased Reaction Biology (HotSpot contract assay)
T3 sequence (P41240 whole entry): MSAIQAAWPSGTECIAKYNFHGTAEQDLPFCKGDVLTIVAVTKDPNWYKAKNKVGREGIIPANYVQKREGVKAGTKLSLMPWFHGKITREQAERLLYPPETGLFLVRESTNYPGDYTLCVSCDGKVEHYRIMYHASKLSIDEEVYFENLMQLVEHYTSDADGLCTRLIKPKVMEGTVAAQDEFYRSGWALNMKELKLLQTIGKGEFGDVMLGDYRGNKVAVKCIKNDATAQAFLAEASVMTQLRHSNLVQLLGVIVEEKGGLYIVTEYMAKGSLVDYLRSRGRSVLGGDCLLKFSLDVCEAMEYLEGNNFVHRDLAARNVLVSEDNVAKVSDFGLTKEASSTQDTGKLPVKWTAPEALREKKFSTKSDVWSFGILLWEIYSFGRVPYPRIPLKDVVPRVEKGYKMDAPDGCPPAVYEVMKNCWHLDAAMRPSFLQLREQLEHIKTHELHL

382 unique human kinases [4] = target: T4, 382 unique human kinases (Homo sapiens, UniProt P78362); conditions: kinase SRPK2, compound 10 uM; for remaining activity at 10 µM: read-out: % Enzyme Activity (relative to DMSO controls)
T4 construct: purchased Reaction Biology (HotSpot contract assay)
T4 sequence (P78362 whole entry): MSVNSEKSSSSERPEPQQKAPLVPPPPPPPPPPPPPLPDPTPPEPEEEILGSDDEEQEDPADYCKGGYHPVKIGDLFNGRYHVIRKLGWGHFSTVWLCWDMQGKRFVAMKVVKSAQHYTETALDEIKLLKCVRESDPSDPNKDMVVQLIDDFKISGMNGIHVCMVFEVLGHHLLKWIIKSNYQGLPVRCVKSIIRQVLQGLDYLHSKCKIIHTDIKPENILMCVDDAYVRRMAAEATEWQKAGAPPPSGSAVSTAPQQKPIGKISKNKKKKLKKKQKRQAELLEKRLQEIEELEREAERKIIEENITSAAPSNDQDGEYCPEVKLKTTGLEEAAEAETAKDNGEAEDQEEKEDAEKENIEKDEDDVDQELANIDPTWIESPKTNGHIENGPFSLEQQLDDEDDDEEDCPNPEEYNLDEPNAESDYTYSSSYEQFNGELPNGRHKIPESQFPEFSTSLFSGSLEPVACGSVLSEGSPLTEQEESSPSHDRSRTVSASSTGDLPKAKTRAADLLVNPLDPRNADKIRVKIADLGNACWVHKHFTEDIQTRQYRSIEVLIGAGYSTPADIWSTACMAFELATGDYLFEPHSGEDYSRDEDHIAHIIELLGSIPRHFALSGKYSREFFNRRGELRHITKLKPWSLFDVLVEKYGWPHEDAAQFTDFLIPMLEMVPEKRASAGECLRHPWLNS

382 unique human kinases [5] = target: T5, 382 unique human kinases (Homo sapiens, UniProt Q15759); conditions: kinase P38b/MAPK11, compound 10 uM; for remaining activity at 10 µM: read-out: % Enzyme Activity (relative to DMSO controls)
T5 construct: purchased Reaction Biology (HotSpot contract assay)
T5 sequence (Q15759 whole entry): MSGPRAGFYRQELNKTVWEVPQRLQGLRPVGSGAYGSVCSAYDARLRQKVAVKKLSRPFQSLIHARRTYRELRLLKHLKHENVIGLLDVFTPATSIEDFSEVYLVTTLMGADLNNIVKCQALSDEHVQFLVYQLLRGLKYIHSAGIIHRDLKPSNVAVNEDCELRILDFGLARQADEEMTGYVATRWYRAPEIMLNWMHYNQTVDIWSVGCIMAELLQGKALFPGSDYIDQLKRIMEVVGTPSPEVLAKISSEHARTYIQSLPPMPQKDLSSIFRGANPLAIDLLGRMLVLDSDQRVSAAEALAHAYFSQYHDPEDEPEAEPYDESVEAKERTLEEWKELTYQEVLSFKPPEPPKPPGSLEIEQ

382 unique human kinases [6] = target: T6, 382 unique human kinases (Homo sapiens, UniProt Q92630); conditions: DYRK2, 10 uM; for remaining activity at 10 µM: read-out: % Enzyme Activity (relative to DMSO controls)
T6 construct: purchased Reaction Biology (HotSpot contract assay)
T6 sequence (Q92630 1-601): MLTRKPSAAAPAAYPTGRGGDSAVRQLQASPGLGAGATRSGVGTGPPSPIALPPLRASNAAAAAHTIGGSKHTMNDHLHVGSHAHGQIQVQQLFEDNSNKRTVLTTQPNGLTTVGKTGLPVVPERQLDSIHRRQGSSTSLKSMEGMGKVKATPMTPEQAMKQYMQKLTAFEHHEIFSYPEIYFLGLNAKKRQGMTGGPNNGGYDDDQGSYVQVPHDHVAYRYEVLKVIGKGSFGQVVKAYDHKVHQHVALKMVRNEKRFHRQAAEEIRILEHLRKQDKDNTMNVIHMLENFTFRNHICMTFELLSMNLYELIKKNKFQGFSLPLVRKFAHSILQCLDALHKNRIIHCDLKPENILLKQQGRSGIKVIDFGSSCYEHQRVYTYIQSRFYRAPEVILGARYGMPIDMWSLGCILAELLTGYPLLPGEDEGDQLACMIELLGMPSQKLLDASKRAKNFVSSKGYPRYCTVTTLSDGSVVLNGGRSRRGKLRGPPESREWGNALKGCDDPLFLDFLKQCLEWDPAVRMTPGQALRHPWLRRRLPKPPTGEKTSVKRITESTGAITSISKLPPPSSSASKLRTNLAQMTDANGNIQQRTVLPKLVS

382 unique human kinases [7] = target: T7, 382 unique human kinases (Homo sapiens, UniProt Q9P0L2); conditions: MARK1, compound at 10 uM, duplicate values; for remaining activity at 10 µM: read-out: % Enzyme Activity (relative to DMSO controls)
T7 construct: purchased Reaction Biology (HotSpot contract assay)
T7 sequence (Q9P0L2 whole entry): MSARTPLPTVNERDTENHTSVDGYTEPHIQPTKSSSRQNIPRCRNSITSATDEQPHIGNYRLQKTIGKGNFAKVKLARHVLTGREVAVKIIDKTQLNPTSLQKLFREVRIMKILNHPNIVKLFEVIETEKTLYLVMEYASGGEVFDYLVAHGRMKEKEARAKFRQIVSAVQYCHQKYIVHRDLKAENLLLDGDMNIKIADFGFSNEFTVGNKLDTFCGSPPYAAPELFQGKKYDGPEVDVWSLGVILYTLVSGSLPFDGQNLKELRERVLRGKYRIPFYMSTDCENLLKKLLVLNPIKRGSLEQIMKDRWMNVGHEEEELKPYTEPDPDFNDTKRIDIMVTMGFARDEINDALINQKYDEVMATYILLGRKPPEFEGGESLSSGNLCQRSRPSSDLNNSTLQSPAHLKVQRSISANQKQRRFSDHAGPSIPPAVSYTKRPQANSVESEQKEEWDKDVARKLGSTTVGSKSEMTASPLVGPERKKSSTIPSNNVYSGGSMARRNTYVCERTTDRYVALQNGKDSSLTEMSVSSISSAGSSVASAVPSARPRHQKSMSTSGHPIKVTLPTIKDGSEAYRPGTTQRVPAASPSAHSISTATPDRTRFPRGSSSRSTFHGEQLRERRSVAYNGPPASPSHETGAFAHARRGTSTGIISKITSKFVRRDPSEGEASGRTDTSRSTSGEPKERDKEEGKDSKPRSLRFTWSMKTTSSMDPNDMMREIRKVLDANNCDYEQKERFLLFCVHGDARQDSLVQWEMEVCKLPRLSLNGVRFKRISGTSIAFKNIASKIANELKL

382 unique human kinases [8] = target: T8, 382 unique human kinases (Homo sapiens, UniProt Q9Y243, E17K); conditions: AKT3 (E17K), 10 uM; for remaining activity at 10 µM: read-out: % Enzyme Activity (relative to DMSO controls)
T8 construct: purchased Reaction Biology (HotSpot contract assay)
T8 sequence (Q9Y243 whole entry E17K): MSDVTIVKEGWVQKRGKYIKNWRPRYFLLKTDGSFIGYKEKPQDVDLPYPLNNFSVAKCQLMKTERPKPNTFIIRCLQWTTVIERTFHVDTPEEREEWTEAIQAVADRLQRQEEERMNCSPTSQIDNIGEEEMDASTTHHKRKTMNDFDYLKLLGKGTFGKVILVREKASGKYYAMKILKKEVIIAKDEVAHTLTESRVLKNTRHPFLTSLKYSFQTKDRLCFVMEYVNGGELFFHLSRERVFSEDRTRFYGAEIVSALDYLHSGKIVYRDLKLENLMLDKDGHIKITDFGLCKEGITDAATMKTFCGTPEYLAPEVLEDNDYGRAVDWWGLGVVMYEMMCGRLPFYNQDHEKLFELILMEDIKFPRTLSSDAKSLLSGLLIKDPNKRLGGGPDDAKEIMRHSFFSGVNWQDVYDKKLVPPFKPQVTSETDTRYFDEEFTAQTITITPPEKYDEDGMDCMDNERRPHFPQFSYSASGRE

382 unique human kinases [9] = target: T9, 382 unique human kinases (Homo sapiens, UniProt O95835); conditions: LATS1, 10 uM; for remaining activity at 10 µM: read-out: % Enzyme Activity (relative to DMSO controls)
T9 construct: purchased Reaction Biology (HotSpot contract assay)
T9 sequence (O95835 1-1130): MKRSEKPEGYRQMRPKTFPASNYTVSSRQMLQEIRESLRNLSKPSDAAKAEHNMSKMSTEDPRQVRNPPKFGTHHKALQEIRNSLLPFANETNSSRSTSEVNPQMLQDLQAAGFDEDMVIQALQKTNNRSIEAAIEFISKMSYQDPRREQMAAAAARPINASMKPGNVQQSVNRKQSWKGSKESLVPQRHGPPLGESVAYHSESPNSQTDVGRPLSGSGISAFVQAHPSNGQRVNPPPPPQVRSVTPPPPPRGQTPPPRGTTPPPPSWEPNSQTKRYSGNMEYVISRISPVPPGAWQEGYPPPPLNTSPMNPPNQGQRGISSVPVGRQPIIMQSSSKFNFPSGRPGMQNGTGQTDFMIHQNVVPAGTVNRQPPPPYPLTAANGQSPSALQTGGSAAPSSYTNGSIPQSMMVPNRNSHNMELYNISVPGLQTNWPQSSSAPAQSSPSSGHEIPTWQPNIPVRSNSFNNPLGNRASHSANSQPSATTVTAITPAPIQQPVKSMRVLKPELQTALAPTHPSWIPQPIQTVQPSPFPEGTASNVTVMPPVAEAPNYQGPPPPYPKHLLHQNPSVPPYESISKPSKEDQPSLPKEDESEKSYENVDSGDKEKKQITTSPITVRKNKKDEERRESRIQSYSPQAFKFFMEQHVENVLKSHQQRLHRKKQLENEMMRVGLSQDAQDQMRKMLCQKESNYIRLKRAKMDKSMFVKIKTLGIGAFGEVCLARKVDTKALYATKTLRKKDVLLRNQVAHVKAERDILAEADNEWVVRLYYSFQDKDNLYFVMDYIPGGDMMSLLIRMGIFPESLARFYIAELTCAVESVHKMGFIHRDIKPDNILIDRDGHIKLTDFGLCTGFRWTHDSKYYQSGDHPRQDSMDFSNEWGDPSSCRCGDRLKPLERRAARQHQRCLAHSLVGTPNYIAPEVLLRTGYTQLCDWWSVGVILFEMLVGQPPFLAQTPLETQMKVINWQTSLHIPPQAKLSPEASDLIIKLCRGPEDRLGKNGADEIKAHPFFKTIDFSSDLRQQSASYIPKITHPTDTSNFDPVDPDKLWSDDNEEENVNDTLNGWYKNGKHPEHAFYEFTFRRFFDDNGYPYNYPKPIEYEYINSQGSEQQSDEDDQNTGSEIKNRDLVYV

382 unique human kinases [10] = target: T10, 382 unique human kinases (Homo sapiens, UniProt Q15118); conditions: PDK1/PDHK1, [ATP] 50 µM, compound 10 uM; for remaining activity at 10 µM: read-out: % Enzyme Activity (relative to DMSO controls)
T10 construct: purchased Reaction Biology (HotSpot contract assay)
T10 sequence (Q15118 29-436): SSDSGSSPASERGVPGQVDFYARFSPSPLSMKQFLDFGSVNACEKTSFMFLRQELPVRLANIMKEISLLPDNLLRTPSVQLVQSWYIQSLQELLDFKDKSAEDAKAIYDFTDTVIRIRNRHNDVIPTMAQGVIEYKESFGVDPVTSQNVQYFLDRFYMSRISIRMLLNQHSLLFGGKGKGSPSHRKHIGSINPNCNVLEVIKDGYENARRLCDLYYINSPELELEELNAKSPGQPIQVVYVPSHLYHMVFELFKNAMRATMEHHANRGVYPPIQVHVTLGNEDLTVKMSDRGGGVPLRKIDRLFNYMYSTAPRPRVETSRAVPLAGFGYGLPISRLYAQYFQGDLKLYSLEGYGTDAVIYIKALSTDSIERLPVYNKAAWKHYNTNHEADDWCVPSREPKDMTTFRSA

| SMILES | remaining activity at 10 µM (382 unique human kinases [1]) [%] | remaining activity at 10 µM (382 unique human kinases [2]) [%] | remaining activity at 10 µM (382 unique human kinases [3]) [%] | remaining activity at 10 µM (382 unique human kinases [4]) [%] | remaining activity at 10 µM (382 unique human kinases [5]) [%] | remaining activity at 10 µM (382 unique human kinases [6]) [%] | remaining activity at 10 µM (382 unique human kinases [7]) [%] | remaining activity at 10 µM (382 unique human kinases [8]) [%] | remaining activity at 10 µM (382 unique human kinases [9]) [%] | remaining activity at 10 µM (382 unique human kinases [10]) [%] | % Enzyme Activity (relative to DMSO controls) (382 unique human kinases [1]) [%] | % Enzyme Activity (relative to DMSO controls) (382 unique human kinases [2]) [%] | % Enzyme Activity (relative to DMSO controls) (382 unique human kinases [3]) [%] | % Enzyme Activity (relative to DMSO controls) (382 unique human kinases [4]) [%] | % Enzyme Activity (relative to DMSO controls) (382 unique human kinases [5]) [%] | % Enzyme Activity (relative to DMSO controls) (382 unique human kinases [6]) [%] | % Enzyme Activity (relative to DMSO controls) (382 unique human kinases [7]) [%] | % Enzyme Activity (relative to DMSO controls) (382 unique human kinases [8]) [%] | % Enzyme Activity (relative to DMSO controls) (382 unique human kinases [9]) [%] | % Enzyme Activity (relative to DMSO controls) (382 unique human kinases [10]) [%] |
| --- | --- | --- | --- | --- | --- | --- | --- | --- | --- | --- | --- | --- | --- | --- | --- | --- | --- | --- | --- | --- |
| CC(C)c1cc(-c2n[nH]c(=O)n2-c2ccc3c(ccn3C)c2)c(O)cc1O [Ganetespib (STA9090)] | 80.9 | 78 | 70.3 | 89.8 | 108 | 75 | 112 | 77.7 | – | – | – | – | – | – | – | – | – | – | – | – |
| CC(C)c1cc(-c2n[nH]c(=O)n2-c2ccc3c(ccn3C)c2)c(O)cc1O [Ganetespib] | – | – | – | – | – | – | – | – | 95.5 | 54.4 | – | – | – | – | – | – | – | – | – | – |
| CCNC(=O)c1noc(-c2cc(C(C)C)c(O)cc2O)c1-c1ccc(CN2CCOCC2)cc1 [Luminespib (AUY-922)] | 105 | 98.4 | 74.1 | 99.5 | 86.3 | 99.7 | 110 | 84.2 | – | – | 102.48 | 98.16 | 73.41 | 97.52 | 82.81 | 98.38 | 104.63 | 79.36 | – | – |
| CCNC(=O)c1noc(-c2cc(C(C)C)c(O)cc2O)c1-c1ccc(CN2CCOCC2)cc1 [Luminespib] | – | – | – | – | – | – | – | – | 98.6 | 60 | – | – | – | – | – | – | – | – | 98.44 | 56.21 |
